Like-named read-outs stand apart in the source and are kept apart here.
How the values were obtained:
[1] = test system: human leukemia cell line K562; experiment: MTT proliferation inhibition, K562; assay type: cell-based; conditions: Homo sapiens, K562, 48 h
Procedure: (§1) Human leukemia cell line K562, clear-cell ovarian carcinoma cell line ES-2, human prostate cancer cell line PC-3, human breast cancer cell line MCF-7, cell line Hela, human liver cancer cell line H7402 and human ovarian cancer cell line 3-AO were transferred into a culture flask and were cultured in a medium at 37° C. in a 5% CO2 and saturation humidity. One bottle of cells in logarithmic growth phase was picked out and was blew and beaten to be uniform with a pipette, then took some cell suspension solution to prepare blood counting plate smear to count cells under inverted microscope, and then adjusted the cell number to be 1×10^5/mL by adding some culture medium. Cells were seeded on a 96-well plate on which also drug tests performed. Blank control group, negative control group, positive control group and drug test group were established on the plate while the surrounding wells of the plate were not used (but filled with sterile PBS), wherein the blank control groups were prepared by addition of culture medium 150 μL per well, the negative control groups were prepared by addition of cell suspension solution 100 μL per well and culture medium 50 μL per well, the positive control groups were prepared by addition of cell suspension solution 100 μL per well and positive control drug solution 50 μL per well, the drug test groups were prepared by addition of cell suspension solution 100 μL per well and test compound solution 50 μL per well, and there were 5 different concentrations of drug in the positive control group and the drug test group respectively: 0.01, 0.1, 1, 10, 100 μmol·L^−1, each concentration was established with 3 parallel wells. After the drug was added, the 96-well plate was incubated for 48 h at 37° C. in a CO2 incubator of 5% CO2 and saturation humidity. Upon completion of the incubation, 20 μL MTT solution (concentration was 5 mg/mL) was added to each well and incubated for an additional 4 h, and after the 96-well plate was centrifuged at 2000 rpm for 30 min, medium of each well was suck out carefully and removed and 100 μL DMSO was added instead, followed by vibrating on a tablet shaker for 15 min to re-dissolve formazan crystals completely. OD value of each well was measured at 570 nm wavelength using an enzyme-linked immunosorbent assay reader to calculate cellular proliferation inhibitory ratio of each drug in different concentrations. And half-inhibitory concentration (IC50) was calculated using statistical software SPSS 16.0, wherein the cellular proliferation inhibitory ratio can be calculated as following equation: […]

[2] = test system: human prostate cancer cell line PC-3; experiment: MTT proliferation inhibition, PC-3; assay type: cell-based; conditions: Homo sapiens, 48 h
Procedure: as §1

[3] = test system: human breast cancer cell line MCF-7; experiment: MTT proliferation inhibition, MCF-7; assay type: cell-based; conditions: Homo sapiens, MCF7, 48 h
Procedure: as §1

[4] = test system: cell line Hela; experiment: MTT proliferation inhibition, Hela; assay type: cell-based; conditions: Homo sapiens, 48 h
Procedure: as §1

[5] = test system: human liver cancer cell line H7402; experiment: MTT proliferation inhibition, H7402; assay type: cell-based; conditions: Homo sapiens, H7402, 48 h
Procedure: as §1

[6] = test system: H22 tumor cells; conditions: Kunming, mouse, in vivo, 14 days
Procedure: (§2) The ascites was extracted from H22 tumour bearing mice with well growth, followed by adding sterile PBS to dilute the ascites to a concentration of 8.5×10^7 cells/mL. 100 uL of the cells solution was suck up by a 1 mL sterile injector to inoculate into right oxter of mice. After 3 days, the mice were weighted and randomized to several groups (almost 8 mice per group, and a bit more in control group). These mice were administrated a predetermined dosage by intravenous or oral gavage with two days off when having administrated for 5 days until two cycles one of which had 7 days. The body weight of mouse was recorded at the beginning and ending of every cycle,
(§3) After being administrated for two cycles, the mice were weighted and recorded, then sacrificed by cervical dislocation to get lung, liver and spleen weighted respectively.
(§4) Overall difference was calculated by the function of one-way analysis of variance (One-Way ANOVA) in Origin 7.5 software; and t-test was used for pair-comparison between drug administrated group and blank group, and the inhibitory ratio of drug in each group was calculated based on the following equation: inhibitory ratio (100%)=(mean tumor weight of control group−mean tumor weight of drug administrated group)/mean tumor weight of control group×100.

[7] = test system: H22 tumor cells; experiment: Activities of compounds in H22 tumor cells bearing Kunming mice models (Example 34); conditions: for Tumor growth inhibition (%) / Tumor weight: after two cycles
Procedure: as §2, §3, §4

[8] = test system: liver cancer H22; experiment: Inhibition assay of intravenous administration against liver cancer H22 (Example 33)
Procedure: Extracted the ascites from H22 ascites tumour bearing mice, washed the ascites with sterile PBS for three times and then resuspended the cells with sterile PBS (cells counts: 3.75×10^7 cells/mL), inoculated it into right oxter of Kunming mice 100 uL per mouse.
The H22 tumor-bearing mice were randomized to 4 groups (7 mice per group) after being weighted. […] The size of tumor was measured by using a vernier calliper and weight of mouse by using an electronic balance at the beginning and ending of every cycle, then calculated their mean value. The mice were sacrificed after 13 days and the tumors were taken out and weighted. Tumor volume and inhibitory ratio were calculated as the following equation (L and W referred to length and width of tumor respectively): […]

[9] = test system: human ovarian cancer cell line 3-AO; experiment: MTT proliferation inhibition, 3-AO; assay type: cell-based; conditions: Homo sapiens, 48 h
Procedure: as §1

[10] = test system: liver cancer H22; experiment: Inhibition assay of oral administration against liver cancer H22 (Example 33); assay type: in vivo, Kunming mice; conditions: oral gavage, sacrificed after 13 days; for Tumor weight: two cycles (5 days on, 2 off); for inhibitory ratio (%): two cycles
Procedure: (1) the negative control: PBS; (2) Xeloda group: 100 mg/kg/d; (3) TFU group: 70 mg/kg/d; (4) BC-01 group: 100 mg/kg/d.
[formula] [formula] [formula] 2.2: Inhibition Assay of Intravenous Administration Against Liver Cancer H22

[11] = intravenous injection, 20 mg/kg/d (0.15 mmol/kg/d)
[12] = mouse, in vivo, iv, 20 mg/kg/day
[13] = tail intravenous injection, 20 mg/kg/d, sacrificed after 13 days
[14] = oral gavage, 108 mg/kg/d (0.3 mmol/kg/d)

`Oc1ncc(F)c(O)n1` [Compound 5-FU, 2,4-dihydroxy-5-fluoropyrimidine, reference compound] gave an EC50 [1] of 16 µM, an EC50 [2] of 15.7 µM and an EC50 [3] of 76.9 µM. The EC50 [4] was 133 µM, the EC50 [5] was 385 µM and the “Number of mice alive” value ([6]; iv, 20 mg/kg/day) was 4. The “Tumor growth inhibition (%)” value [7, 11] was 10.41%, the “Tumor weight” value [7, 11] was 0.54 ± 0.06 g and the “Body weight(g) Beginning” value [7, 11] was 26.89 ± 2.06 g. The “Body weight(g) Ending” value [7, 11] was 25.51 ± 4.50 g, the “Number of mice alive” value ([8]; Kunming, mouse, in vivo, iv, 20 mg/kg/day, 13 days) was 7 and the “Body weight(g) Beginning” value [8, 12] was 31.37 ± 4.05 g. The “Body weight(g) Ending” value [8, 12] was 31.92 ± 4.98 g, the “Tumor weight” value [8, 13] was 0.84 ± 0.19 g and the “inhibitory ratio (%)” value [8, 13] was 38.83%. The EC50 [9] was 60.8 µM.

For `O=c1[nH]c(=O)n(C2CCCO2)cc1F` (stereo not shown) [TFU], the Tumor weight ([10]; 70 mg/kg/d) was 0.68 g and the “inhibitory ratio (%)” value ([10]; 70 mg/kg/d) was 13.38%.

In the case of `CCCCCOC(=O)Nc1nc(=O)n([C@@H]2O[C@H](C)[C@@H](O)[C@H]2O)cc1F` [Xeloda, capecitabine, reference compound], the “Number of mice alive” value ([6]; po, 108 mg/kg/day) is reported as 7, the “Tumor growth inhibition (%)” value [7, 14] is reported as 40.95% and the “Tumor weight” value [7, 14] is reported as 0.35 ± 0.09 g. The “Body weight(g) Beginning” value [7, 14] was 33.00 ± 1.81 g, the “Body weight(g) Ending” value [7, 14] was 31.42 ± 3.56 g and the Tumor weight ([10]; 100 mg/kg/d) was 0.6 g. For the same compound, the “inhibitory ratio (%)” value ([10]; 100 mg/kg/d) was 24.53%.
